Results: patent US20240382507A1, “PHARMACEUTICAL COMPOSITIONS COMPRISING 2,3,4,5- TETRAHYDROBENZOTHIEPIN- 1,1-DIOXIDE DERIVATIVES AND THE USE THEREOF” (Mirum Pharmaceuticals, Inc., priority 2023, published 2024)
Where a name gives a salt, the structure may show the parent alone.

Experiments:
[1] = Excipient compatibility: potency and purity of binary volixibat:excipient formulations on storage (HPLC); type: physicochemical
Description: Binary formulations of volixibat potassium were prepared at either 1:1 or 10:1 ratio with the excipients outlined in Table 1.1. Powder grade excipients were utilized to maximize surface area interactions between excipient and drug substance.
Each formulation was prepared at 300 mg total sample size. Volixibat and each excipient was weighed into glass vials and mixed via vortex. A single vial of each formulation was stored loosely capped at two storage conditions: ambient/60% RH and 40° C./75% RH. Humidity control was obtained by using a saturated salt solution in a sealed container. […] A standard solution of volixibat DS prepared at nominal concentration in the analytical diluent served as the T=0 data point. The neat, loose drug substance powder was stored in the same vial configuration to serve as a control at each storage condition.
At the specified time points, approximately 50 mg of each formulation was sampled and diluted with analytical diluent in either 50 mL (for 1:1 formulations) or 100 mL (for […] and neat DS) to target nominal analytical concentration of 0.5 mg/mL volixibat. HPLC analysis was used based on the parameters described above under HPLC Parameters (Gradient Elution).

[2] = Formulation flow properties; type: physicochemical
physchem = conditions: 25 °C, water

SMILES	Potency, % LC Volixibat ([1]; stored at 40° C./75% RH, T = 2-weeks) [% LC]	Potency, % LC Volixibat ([1]; stored at 40° C./75% RH, T = 4 weeks) [% LC]	Potency, % LC Volixibat ([1]; stored at 40° C./75% RH, T = 8 weeks) [% LC]	Potency, % LC Volixibat ([1]; stored at RT/60% RH, T = 2-weeks) [% LC]	Potency, % LC Volixibat ([1]; stored at RT/60% RH, T = 4 weeks) [% LC]	Potency, % LC Volixibat ([1]; stored at RT/60% RH, T = 9 weeks) [% LC]	Bulk Density [2] [g/mL]	Hausner Ratio [2]	Tapped Density [2] [g/mL]	solubility (physchem) [mg/mL]
CCCC[C@]1(CC)CS(=O)(=O)c2ccc(N(C)C)cc2[C@@H](c2cccc(NC(=O)N[C@@H]3O[C@H](COS(=O)(=O)[O-])[C@@H](O)[C@H](OCc4ccccc4)[C@H]3O)c2)[C@H]1O.[K+] [Volixibat DS]	93.2	105.1	98.3	100.9	107.7	97.1	0.54	1.27	0.69	
CCCC[C@]1(CC)CS(=O)(=O)c2ccc(N(C)C)cc2[C@@H](c2cccc(NC(=O)N[C@@H]3O[C@H](COS(=O)(=O)O)[C@@H](O)[C@H](OCc4ccccc4)[C@H]3O)c2)[C@H]1O [volixibat, ((2R,3R,4S,5R,6R)-4-benzyloxy-6-{3-[3-((3S,4R,5R)-3-butyl-7-dimethylamino-3-ethyl-4-hydroxy-1,1-dioxo-2,3,4,5-tetrahydro-1H-benzo[b]thiepin-5-yl)-phenyl]-ureido}-3,5-dihydroxy-tetrahydro-pyran-2-ylmethyl) hydrogen sulfate)]										> 200
